Laboratory results taken from publication PMC4633220, “Antiaggregation Potential of Padina gymnospora against the Toxic Alzheimer’s Beta-Amyloid Peptide 25–35 and Cholinesterase Inhibitory Property of Its Bioactive Compounds” (PLoS ONE, 2015).
pIC50: −log10 of the molar value.

Legend:
[1] = system: T1, Aβ 25–35 pre-formed fibrils; assay: Thioflavin T assay, Phase II: disaggregation of pre-formed mature fibrils; type: biochemical; settings: pre-formed Aβ 25–35 fibrils with ACTPG 250 μg/ml or galantamine 50 μM
T1 construct: Aβ 25–35 peptide was purchased from GenScript USA Inc; purchased GenScript USA Inc
Experimental: According to the method of Ramesh et al the anti-aggregation and disaggregation property of P. gymnospora was evaluated in two different phases. In phase I, the inhibition of aggregate formation was assessed by using oligomers. Consequently, in Phase II the disaggregation of the pre-formed fibrils were determined. Freshly prepared Aβ 25–35 (100 μM) monomer was incubated in Tris-HCl buffer pH 7.4 at 37°C for 20 h. However, after 20 h, an increase in fluorescence intensity was observed which represents the formation of oligomers. The acetone extract of P. gymnospora (ACTPG) (250 and 500 μg/ml) was added to the oligomers and subjected to incubation at 48 h for dose fixation. […] In phase I, the freshly prepared Aβ 25–35 (100 μM) was incubated with ACTPG (250 μg/ml), and the aggregation pattern was evaluated by ThT assay with the aliquots taken from the incubation mixture at 20 h and 48 h respectively. […] After that, ACTPG (250 μg/ml) was co-incubated with the pre-formed fibrils, and the disaggregation pattern was evaluated by taking the aliquots of incubation mixture at 96 h and 9 days using Thioflavin T assay using the standard Galantamine (50μM) as a positive control. […]
Thioflavin T-induced fluorescence changes were measured to quantify amyloid fibril formation by spectrofluorimeter (Microplate Analyzer) as described by. […]

BuChE from horse serum = molecular target: T2, BuChE from horse serum (Equus caballus, UniProt P81908); assay: biochemical
T2 construct: BuChE from horse serum (EC 3.1.1.8, MP Biomedicals); purchased MP Biomedicals; host or cells: horse serum
Experimental: (§1) ChE inhibitory activities were measured using a modified 96-well microplate assay developed by. […] After incubation, 125 μl of 3 mM DTNB was added and the total volume was made up to 300 μl with Tris- HCl buffer (pH 8.0/7.4). Enzyme activity was initiated by the addition of 50 μl of 15 mm ATCI/BTCI. […] AChE activity was expressed as U/mg of protein (1U = μmol of thiocholine iodide formed/min/mg protein). […] Percentage of inhibition of AChE/BuChE was determined by comparison of rates of reaction of samples relative to the blank (Tris-HCl buffer) using the formula, where SA is the specific activity.
(§2) % of inhibition = [(SA of control − SA of test sample) / SA of control]*100

AChE from Electric eel = molecular target: T3, AChE from Electric eel (Electrophorus electricus, UniProt O42275); assay: AChE inhibitory assay (modified Ellman 96-well microplate); type: biochemical
T3 construct: AChE from Electric eel (Type-VI-S, EC 3.1.1.7, Sigma); purchased Sigma Type-VI-S
Experimental: as §1, §2

T2 sequence (P81908 whole entry): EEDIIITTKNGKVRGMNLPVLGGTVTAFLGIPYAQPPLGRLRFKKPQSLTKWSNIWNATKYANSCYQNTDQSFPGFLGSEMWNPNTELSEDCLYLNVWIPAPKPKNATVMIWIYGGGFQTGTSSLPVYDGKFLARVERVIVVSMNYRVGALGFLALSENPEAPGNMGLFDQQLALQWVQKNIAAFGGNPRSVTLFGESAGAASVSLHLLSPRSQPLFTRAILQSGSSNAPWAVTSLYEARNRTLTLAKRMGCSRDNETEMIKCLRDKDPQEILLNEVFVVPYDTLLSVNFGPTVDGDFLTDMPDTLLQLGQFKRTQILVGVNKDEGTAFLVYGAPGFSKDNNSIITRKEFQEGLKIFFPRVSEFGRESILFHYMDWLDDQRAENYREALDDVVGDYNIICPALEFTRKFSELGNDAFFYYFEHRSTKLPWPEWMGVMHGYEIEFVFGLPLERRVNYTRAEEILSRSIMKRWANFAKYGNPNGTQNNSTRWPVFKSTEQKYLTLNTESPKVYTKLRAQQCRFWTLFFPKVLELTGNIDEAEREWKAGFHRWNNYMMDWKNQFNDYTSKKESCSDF
T3 sequence (O42275 24-633): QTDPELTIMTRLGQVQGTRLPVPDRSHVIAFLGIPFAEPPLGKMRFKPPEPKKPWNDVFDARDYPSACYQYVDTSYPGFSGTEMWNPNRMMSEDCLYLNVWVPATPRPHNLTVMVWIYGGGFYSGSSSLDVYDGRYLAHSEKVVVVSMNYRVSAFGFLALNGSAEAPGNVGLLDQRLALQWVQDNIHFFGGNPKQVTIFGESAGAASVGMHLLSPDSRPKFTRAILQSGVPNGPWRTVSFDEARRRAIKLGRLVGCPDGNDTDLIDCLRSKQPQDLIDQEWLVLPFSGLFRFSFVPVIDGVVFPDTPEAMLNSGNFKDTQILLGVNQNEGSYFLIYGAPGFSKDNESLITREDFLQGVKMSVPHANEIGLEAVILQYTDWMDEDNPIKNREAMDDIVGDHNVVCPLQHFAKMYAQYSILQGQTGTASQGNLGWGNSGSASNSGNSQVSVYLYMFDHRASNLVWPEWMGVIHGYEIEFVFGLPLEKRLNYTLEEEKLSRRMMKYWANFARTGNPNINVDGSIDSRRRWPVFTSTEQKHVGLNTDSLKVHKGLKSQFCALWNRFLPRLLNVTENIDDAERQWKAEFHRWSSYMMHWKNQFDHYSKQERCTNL

| SMILES | Thioflavin T fluorescence intensity ([1]; 96 h, Aβ alone 4.67 ± 0.28 AU) [AU] | Thioflavin T fluorescence intensity ([1]; 9 days, Aβ alone 6.06 ± 0.47 AU) [AU] | pIC50 (BuChE from horse serum) | inhibition at up to 50 µg/mL (BuChE from horse serum; 10–50 μg/ml tested, at 50 μg/ml, read-out: maximum BuChE inhibitory activity) [%] | pIC50 (AChE from Electric eel) | inhibition at 50 µg/mL (AChE from Electric eel; read-out: maximum AChE inhibitory activity) [%] |
| --- | --- | --- | --- | --- | --- | --- |
| COc1ccc2c3c1O[C@H]1C[C@@H](O)C=C[C@@]31CCN(C)C2 [Galantamine] | 3.62 ± 0.55 | 2.86 ± 0.94 |  |  |  |  |
| CC(C)=CCC[C@](C)(O)[C@@H]1CC=C(C)CC1 [alpha-bisabolol, Alpha-bisabolol] |  |  | > 4.35 | 66 | > 4.35 | 87 |
